Test results published in ChEMBL document CHEMBL1125364, “Thromboxane receptor antagonism combined with thromboxane synthase inhibition. 3. Pyridinylalkyl-substituted 8-[(arylsulfonyl)amino]octanoic acids” (J Med Chem, 1992).

Key:
[1] = biological target: T1, Thromboxane-A synthase (Homo sapiens, UniProt P24557); assay: The compound was tested in vitro for its inhibitory activity against thromboxane synthase A2 (TXA2)
T1 sequence (P24557 whole entry): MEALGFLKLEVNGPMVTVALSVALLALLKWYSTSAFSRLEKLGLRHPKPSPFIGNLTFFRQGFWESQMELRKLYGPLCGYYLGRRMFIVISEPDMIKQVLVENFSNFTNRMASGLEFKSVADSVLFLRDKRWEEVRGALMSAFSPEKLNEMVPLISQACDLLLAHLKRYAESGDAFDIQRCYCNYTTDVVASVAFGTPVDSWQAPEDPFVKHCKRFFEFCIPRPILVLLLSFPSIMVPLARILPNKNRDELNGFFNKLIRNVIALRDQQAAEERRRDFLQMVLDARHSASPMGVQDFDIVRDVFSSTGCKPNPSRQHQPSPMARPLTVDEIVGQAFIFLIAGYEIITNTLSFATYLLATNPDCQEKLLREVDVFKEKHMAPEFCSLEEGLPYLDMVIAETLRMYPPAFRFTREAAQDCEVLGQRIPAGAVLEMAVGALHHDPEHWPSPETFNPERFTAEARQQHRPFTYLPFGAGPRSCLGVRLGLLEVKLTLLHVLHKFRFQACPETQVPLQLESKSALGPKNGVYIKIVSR

[2] = organism: Canis familiaris; details: Canis lupus familiaris; Saphenous vein; filed as agonist
[3] = organism: Homo sapiens; assay: The compound was tested in vitro for its inhibitory activity against U 46619-induced aggregation of washed human platelets.; format: functional
[4] = organism: Homo sapiens; assay: The compound was tested in vitro for its inhibitory activity against U 46619-induced aggregation of human platelet rich plasma (PRP).; format: functional
[5] = organism: Canis familiaris; assay: The compound was tested in vitro for its inhibitory activity against U 46619-induced contraction of saphenous vein in dog.; format: functional; details: Canis lupus familiaris, read-out: pA2 (converted)
[6] = organism: Canis familiaris; assay: The compound was tested in vitro for its antagonistic activity against U 46619-induced contraction of saphenous vein in dog; agonist activity was observed at e-6 - e-7; details: Canis lupus familiaris, filed as agonist

SMILES | IC50 [1] [nM] | IC50 [3] [nM] | IC50 [4] [nM] | pA2 [2] | Kb [5] [nM] | pA2 [6]
O=C(O)C(CCCCCCNS(=O)(=O)c1ccc(Cl)cc1)CCCCCc1cccnc1 (centres undefined) | 4 | 300 | – | – | – | –
O=C(O)CCCC(CCCNS(=O)(=O)c1ccc(Cl)cc1)CCc1cccnc1 (centres undefined) | 20 | 220 | 4600 | – | 1.74 | –
O=C(O)CCC(CCCCNS(=O)(=O)c1ccc(Cl)cc1)CCCc1cccnc1 (centres undefined) | 2 | 19 | 390 | – | 1.26 | –
O=C(O)CC(CCCCCNS(=O)(=O)c1ccc(Cl)cc1)CCCCc1cccnc1 (centres undefined) | 100 | 1390 | – | – | – | –

The next lines start with results.

IC50 [1] [nM] | IC50 [3] [nM] | IC50 [4] [nM] | SMILES | pA2 [2] | Kb [5] [nM] | pA2 [6]
> 500 | 27 | 600 | O=C(O)CCCCCCC(NS(=O)(=O)c1ccc(Cl)cc1)c1cccnc1 (centres undefined) | Agonist | – | –
14 | 117 | 370 | O=C(O)CCCCC(CCNS(=O)(=O)c1ccc(Cl)cc1)Cc1cccnc1 (centres undefined) | – | 11.7 | –
220 | 20 | 280 | O=C(O)CCCCCC(CNS(=O)(=O)c1ccc(Cl)cc1)c1cccnc1 (centres undefined) | – | – | Agonist
